Measured values from ChEMBL document CHEMBL1152211, “Structure-activity study at positions 3 and 4 of human neuropeptide S” (Bioorg Med Chem, 2008).
Non-standard residues stand in square brackets, D forms with d. Residues, ends and D or L forms follow the SMILES beside them. *: point of attachment. Arg(Me2a) = CN(C)C(=N)NCCC[C@H](N)C(=O)O; Arg(Me2s) = CN=C(NC)NCCC[C@H](N)C(=O)O; Nva(4-oxo) = CC(=O)C[C@H](N)C(=O)O; 2Pal = N[C@@H](Cc1ccccn1)C(=O)O; 3Pal = N[C@@H](Cc1cccnc1)C(=O)O; 4Pal = N[C@@H](Cc1ccncc1)C(=O)O; Tos = Cc1ccc(S(=O)(=O)*)cc1; Dab = NCC[C@H](N)C(=O)O; Nva = CCC[C@H](N)C(=O)O

Experiments:
[1] = target: T1, Neuropeptide S receptor (Mus musculus) (UniProt Q8BZP8); assay: Agonist activity at mouse NPSR expressed in HEK293 cells assessed as increase in intracellular calcium mobilization at 10 uM by FLIPR; type: functional, cell-based
T1 sequence (whole entry): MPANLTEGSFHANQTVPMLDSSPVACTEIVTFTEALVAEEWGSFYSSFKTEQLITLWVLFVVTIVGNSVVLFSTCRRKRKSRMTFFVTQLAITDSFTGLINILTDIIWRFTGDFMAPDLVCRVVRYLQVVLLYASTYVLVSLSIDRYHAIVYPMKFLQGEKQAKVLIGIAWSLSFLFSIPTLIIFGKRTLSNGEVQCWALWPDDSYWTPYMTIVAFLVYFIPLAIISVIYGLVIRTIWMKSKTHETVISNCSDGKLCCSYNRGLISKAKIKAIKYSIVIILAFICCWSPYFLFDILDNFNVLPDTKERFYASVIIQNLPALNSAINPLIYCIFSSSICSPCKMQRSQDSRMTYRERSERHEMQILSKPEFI

Neuropeptide S receptor = target: T2, Neuropeptide S receptor (Mus musculus, UniProt Q8BZP8); assay: Agonist activity at mouse NPSR expressed in HEK293 cells assessed as increase in intracellular calcium mobilization by FLIPR; type: functional, cell-based
T2 sequence (Q8BZP8 whole entry): T1 sequence (whole entry)

Row | Compound | Activity [1] [%] | EC50 (Neuropeptide S receptor) [nM]
1 | CSCC[C@H](NC(=O)CNC(=O)[C@@H](NC(=O)CNC(=O)[C@@H](NC(=O)CNC(=O)[C@H](CC(N)=O)NC(=O)[C@H](CCCNC(=N)NS(=O)(=O)c1ccc(C)cc1)NC(=O)[C@H](Cc1ccccc1)NC(=O)[C@@H](N)CO)C(C)C)[C@@H](C)O)C(=O)N[C@@H](CCCCN)C(=O)N[C@@H](CCCCN)C(=O)N[C@H](C(=O)N[C@@H](CO)C(=O)N[C@@H](Cc1ccccc1)C(=O)N[C@@H](CCC(N)=O)C(=O)N[C@@H](CCCNC(=N)N)C(=O)N[C@@H](C)C(=O)N[C@@H](CCCCN)C(=O)N[C@@H](CO)C(=O)O)[C@@H](C)O (H-SFR(Tos)NGVGTGMKKTSFQRAKS-OH) | 104 | 
2 | CNC(=O)C[C@H](NC(=O)[C@H](CCCNC(=N)N)NC(=O)[C@H](Cc1ccccc1)NC(=O)[C@@H](N)CO)C(=O)NCC(=O)N[C@H](C(=O)NCC(=O)N[C@H](C(=O)NCC(=O)N[C@@H](CCSC)C(=O)N[C@@H](CCCCN)C(=O)N[C@@H](CCCCN)C(=O)N[C@H](C(=O)N[C@@H](CO)C(=O)N[C@@H](Cc1ccccc1)C(=O)N[C@@H](CCC(N)=O)C(=O)N[C@@H](CCCNC(=N)N)C(=O)N[C@@H](C)C(=O)N[C@@H](CCCCN)C(=O)N[C@@H](CO)C(=O)O)[C@@H](C)O)[C@@H](C)O)C(C)C (H-SFRD(NHMe)GVGTGMKKTSFQRAKS-OH) | 188 | 
3 | CSCC[C@H](NC(=O)CNC(=O)[C@@H](NC(=O)CNC(=O)[C@@H](NC(=O)CNC(=O)[C@H](CC(=O)N(C)C)NC(=O)[C@H](CCCNC(=N)N)NC(=O)[C@H](Cc1ccccc1)NC(=O)[C@@H](N)CO)C(C)C)[C@@H](C)O)C(=O)N[C@@H](CCCCN)C(=O)N[C@@H](CCCCN)C(=O)N[C@H](C(=O)N[C@@H](CO)C(=O)N[C@@H](Cc1ccccc1)C(=O)N[C@@H](CCC(N)=O)C(=O)N[C@@H](CCCNC(=N)N)C(=O)N[C@@H](C)C(=O)N[C@@H](CCCCN)C(=O)N[C@@H](CO)C(=O)O)[C@@H](C)O (H-SFRD(NMe2)GVGTGMKKTSFQRAKS-OH) | 89 | 
4 | CSCC[C@H](NC(=O)CNC(=O)[C@@H](NC(=O)CNC(=O)[C@@H](NC(=O)CNC(=O)[C@H](CCN)NC(=O)[C@H](CCCNC(=N)N)NC(=O)[C@H](Cc1ccccc1)NC(=O)[C@@H](N)CO)C(C)C)[C@@H](C)O)C(=O)N[C@@H](CCCCN)C(=O)N[C@@H](CCCCN)C(=O)N[C@H](C(=O)N[C@@H](CO)C(=O)N[C@@H](Cc1ccccc1)C(=O)N[C@@H](CCC(N)=O)C(=O)N[C@@H](CCCNC(=N)N)C(=O)N[C@@H](C)C(=O)N[C@@H](CCCCN)C(=O)N[C@@H](CO)C(=O)O)[C@@H](C)O (H-SFR[Dab]GVGTGMKKTSFQRAKS-OH) | 169 | 
5 | CSCC[C@H](NC(=O)CNC(=O)[C@@H](NC(=O)CNC(=O)[C@@H](NC(=O)CNC(=O)[C@H](CC(C)=O)NC(=O)[C@H](CCCNC(=N)N)NC(=O)[C@H](Cc1ccccc1)NC(=O)[C@@H](N)CO)C(C)C)[C@@H](C)O)C(=O)N[C@@H](CCCCN)C(=O)N[C@@H](CCCCN)C(=O)N[C@H](C(=O)N[C@@H](CO)C(=O)N[C@@H](Cc1ccccc1)C(=O)N[C@@H](CCC(N)=O)C(=O)N[C@@H](CCCNC(=N)N)C(=O)N[C@@H](C)C(=O)N[C@@H](CCCCN)C(=O)N[C@@H](CO)C(=O)O)[C@@H](C)O (H-SFR[Nva(4-oxo)]GVGTGMKKTSFQRAKS-OH) | 136 | 
6 | CCC[C@H](NC(=O)[C@H](CCCNC(=N)N)NC(=O)[C@H](Cc1ccccc1)NC(=O)[C@@H](N)CO)C(=O)NCC(=O)N[C@H](C(=O)NCC(=O)N[C@H](C(=O)NCC(=O)N[C@@H](CCSC)C(=O)N[C@@H](CCCCN)C(=O)N[C@@H](CCCCN)C(=O)N[C@H](C(=O)N[C@@H](CO)C(=O)N[C@@H](Cc1ccccc1)C(=O)N[C@@H](CCC(N)=O)C(=O)N[C@@H](CCCNC(=N)N)C(=O)N[C@@H](C)C(=O)N[C@@H](CCCCN)C(=O)N[C@@H](CO)C(=O)O)[C@@H](C)O)[C@@H](C)O)C(C)C (H-SFR[Nva]GVGTGMKKTSFQRAKS-OH) | 240 | 
7 | CSCC[C@H](NC(=O)CNC(=O)[C@@H](NC(=O)CNC(=O)[C@@H](NC(=O)CNC(=O)[C@H](CC(N)=O)NC(=O)[C@H](Cc1ccccn1)NC(=O)[C@H](Cc1ccccc1)NC(=O)[C@@H](N)CO)C(C)C)[C@@H](C)O)C(=O)N[C@@H](CCCCN)C(=O)N[C@@H](CCCCN)C(=O)N[C@H](C(=O)N[C@@H](CO)C(=O)N[C@@H](Cc1ccccc1)C(=O)N[C@@H](CCC(N)=O)C(=O)N[C@@H](CCCNC(=N)N)C(=O)N[C@@H](C)C(=O)N[C@@H](CCCCN)C(=O)N[C@@H](CO)C(=O)O)[C@@H](C)O (H-SF[2Pal]NGVGTGMKKTSFQRAKS-OH) | 19 | 
8 | CSCC[C@H](NC(=O)CNC(=O)[C@@H](NC(=O)CNC(=O)[C@@H](NC(=O)CNC(=O)[C@H](CC(N)=O)NC(=O)[C@H](Cc1cccnc1)NC(=O)[C@H](Cc1ccccc1)NC(=O)[C@@H](N)CO)C(C)C)[C@@H](C)O)C(=O)N[C@@H](CCCCN)C(=O)N[C@@H](CCCCN)C(=O)N[C@H](C(=O)N[C@@H](CO)C(=O)N[C@@H](Cc1ccccc1)C(=O)N[C@@H](CCC(N)=O)C(=O)N[C@@H](CCCNC(=N)N)C(=O)N[C@@H](C)C(=O)N[C@@H](CCCCN)C(=O)N[C@@H](CO)C(=O)O)[C@@H](C)O (H-SF[3Pal]NGVGTGMKKTSFQRAKS-OH) | 42 | 
9 | CSCC[C@H](NC(=O)CNC(=O)[C@@H](NC(=O)CNC(=O)[C@@H](NC(=O)CNC(=O)[C@H](CC(N)=O)NC(=O)[C@H](Cc1ccncc1)NC(=O)[C@H](Cc1ccccc1)NC(=O)[C@@H](N)CO)C(C)C)[C@@H](C)O)C(=O)N[C@@H](CCCCN)C(=O)N[C@@H](CCCCN)C(=O)N[C@H](C(=O)N[C@@H](CO)C(=O)N[C@@H](Cc1ccccc1)C(=O)N[C@@H](CCC(N)=O)C(=O)N[C@@H](CCCNC(=N)N)C(=O)N[C@@H](C)C(=O)N[C@@H](CCCCN)C(=O)N[C@@H](CO)C(=O)O)[C@@H](C)O (H-SF[4Pal]NGVGTGMKKTSFQRAKS-OH) | 154 | 
10 | CSCC[C@H](NC(=O)CNC(=O)[C@@H](NC(=O)CNC(=O)[C@@H](NC(=O)CNC(=O)[C@H](CC(N)=O)NC(=O)[C@H](CCCNC(=N)N(C)C)NC(=O)[C@H](Cc1ccccc1)NC(=O)[C@@H](N)CO)C(C)C)[C@@H](C)O)C(=O)N[C@@H](CCCCN)C(=O)N[C@@H](CCCCN)C(=O)N[C@H](C(=O)N[C@@H](CO)C(=O)N[C@@H](Cc1ccccc1)C(=O)N[C@@H](CCC(N)=O)C(=O)N[C@@H](CCCNC(=N)N)C(=O)N[C@@H](C)C(=O)N[C@@H](CCCCN)C(=O)N[C@@H](CO)C(=O)O)[C@@H](C)O (H-SF[Arg(Me2a)]NGVGTGMKKTSFQRAKS-OH) |  | 22.4
11 | C/N=C(/NC)NCCC[C@H](NC(=O)[C@H](Cc1ccccc1)NC(=O)[C@@H](N)CO)C(=O)N[C@@H](CC(N)=O)C(=O)NCC(=O)N[C@H](C(=O)NCC(=O)N[C@H](C(=O)NCC(=O)N[C@@H](CCSC)C(=O)N[C@@H](CCCCN)C(=O)N[C@@H](CCCCN)C(=O)N[C@H](C(=O)N[C@@H](CO)C(=O)N[C@@H](Cc1ccccc1)C(=O)N[C@@H](CCC(N)=O)C(=O)N[C@@H](CCCNC(=N)N)C(=O)N[C@@H](C)C(=O)N[C@@H](CCCCN)C(=O)N[C@@H](CO)C(=O)O)[C@@H](C)O)[C@@H](C)O)C(C)C (H-SF[Arg(Me2s)]NGVGTGMKKTSFQRAKS-OH) |  | 31.6
12 | H-SFDNGVGTGMKKTSFQRAKS-OH | 73 | 
13 | H-SFENGVGTGMKKTSFQRAKS-OH | 89 | 
14 | H-SFFNGVGTGMKKTSFQRAKS-OH | 46 | 
15 | H-SFLNGVGTGMKKTSFQRAKS-OH | 36 | 
16 | H-SFNNGVGTGMKKTSFQRAKS-OH | 161 | 
17 | H-SFRDGVGTGMKKTSFQRAKS-OH | 146 | 
18 | H-SFRFGVGTGMKKTSFQRAKS-OH | 118 | 
19 | H-SFSNGVGTGMKKTSFQRAKS-OH | 175 | 
20 | H-SFVNGVGTGMKKTSFQRAKS-OH | 129 | 
